From patent US10000739B2, “Method and culture medium for improving pluripotent stem cell differentiation inducing efficiency” (NATIONAL UNIVERSITY CORPORATION KUMAMOTO UNIVERSITY, priority 2010, dated 2018)
Where two headings read alike, the source gives them in different places.

How the values were obtained:
[1] = tested on: human iPS cells; assay: Differentiation of human iPS cells into endoderm cells on mmcM15 cells, immunofluorescent staining for Sox17 and Oct3/4; format: cell-based; settings: staining Day 10, vs control culture medium
Protocol: (§1) In performing a whole mount immunohistochemistry test, ES cells or iPS cells were placed on Nunc Theranox Colerslips 24-well type (Nunc). Cells were fixed at room temperature for 20 minutes in 4% paraformaldehyde, and washed sufficiently with 0.1% Tween-containing phosphate buffered saline (PBS-T). In PBS containing 1% TritonX-100, the cells were infiltrated at room for 10 minutes, and incubated for 1 hour in a blocking solution (×5 Blocking One, Nacalai Tesque), then, primary antibodies in the blocking solution were added to the sample, and incubated at 4° C. overnight. The sample was washed sufficiently with PBS-T, and mounted with PermaFluor Aqueous Mounting culture medium (IMMUNON). A confocal image was obtained using Leica Spectral Confocal Scanning System, TCS-SP2 (Leica).
(§2) Antibodies used for detection are as described below. Rabbitanti-α-fetoprotein (AFP, Dako), goat anti-albumin (Sigma), rabbit anti-Pdx1 (Chemicon), mouse anti-Oct3/4 (Santa Cruz), goat anti-Sox17 (R&D). As secondary antibodies, Alexa568-labeled goat anti-rabbit antibody and donkey anti-goat antibody, and Alexa488-labeled goat anti-mouse antibody and goat anti-rabbit antibody, donkey anti-goat antibody (Molecular Probes) were used. Cells were counter-stained with DAPI (Roche). The numbers of Sox17 and Oct3/4 positive cells were quantified using ImageXpress (Molecular Devices Corporation).
Differentiation of human iPS cells into endoderm cells was induced using endoderm differentiation culture media deprived of one amino acid for each culture medium. For induction of differentiation into endoderm cells, an endoderm differentiation inducing method using mmcM15 cells was used (see, non-patent document 6).
As the culture medium, the following media were used depending on the culturing period. From initiation of culturing (Day 0) until Day 6 or Day 8 of culturing, PRMI 1640 culture medium (Invitrogen) containing 50 units/ml penicillin and 50 μg/ml streptomycin (GIBCO), 2 mM L-glutamine (GIBCO), 100 μM β-mercaptoethanol (Sigma), non-essential amino acid (GIBCO), 100 ng/ml activin (R&D Systems) and B27 culture medium additive (Invitrogen) added was used as an endoderm differentiation culture medium.
From Day 6 or Day 8 until Day 10, amino acid-deprived culture media obtained by removing one amino acid from PRMI 1640 culture medium containing 50 units/ml penicillin and 50 μg/ml streptomycin, 2 mM L-glutamine, 100 μM β-mercaptoethanol, 100 ng/ml activin and B27 culture medium additive added, or a culture medium not deprived of an amino acid (control culture medium) was used as an endoderm differentiation culture medium.
Specifically, mmcM15 cells were seeded as supporting cells on a gelatin-coated 96-well plate. Human iPS cells were treated with Y27632 (10 μM) from 24 hours before seeding, and peeled using 0.25% trypsin. The peeled human iPS cells were seeded on mmcM15 cells at a cell concentration of 1×10^4 cells/well. The seeded human iPS cells were cultured for 24 hours under 37° C. and 5% CO2 in ES culture medium (ReproStem, ReproCell) containing 10 μM Y27632 and 5 ng/ml bFGF added. After 24 hours, cells were washed once with PBS, then, the culture medium was changed to an endoderm differentiation culture medium (Day 0). Until Day 6 or Day 8 of culturing, the endoderm differentiation culture medium was changed every other day, and human iPS cells were cultured under 37° C. and 5% CO2. On Day 6 or Day 8, the culture medium was changed to an amino acid-deprived culture medium or a control culture medium. Human iPS cells were cultured until Day 10 of culturing using an amino acid-deprived culture medium or a control culture medium. On Day 10, human iPS cells were subjected to immunofluorescent staining, and the proportions of positive cells for an endoderm differentiation marker (Sox17) and an undifferentiation marker (Oct3/4) were quantitatively analyzed. The proportion of the positive cells based on those stained with DAPI was calculated.

[2] = tested on: human iPS cells; assay: Addition of methionine metabolites to methionine-deprived or methyl donor-deprived culture medium, Oct3/4 and Sox17 positive cells counted; format: cell-based; settings: for effect of reducing Oct3/4 positive cells owing to methionine deprivation: added to methionine-deprived culture medium (ΔMet) Day 8 to Day 10; for effect of reducing Oct3/4 positive cells: added to methyl donor-deprived culture medium (ΔMD) Day 8 to Day 10
Protocol: For investigating an influence of a methionine and methyl donor-deprived culture medium on differentiation into endoderm cells, a culture medium was deprived of methionine and methyl donors on Day 8 of differentiation, and cells were cultured until Day 10 and the numbers of Oct3/4 and Sox17 positive cells were evaluated by antibody staining. Specifically, mmcM15 cells were seeded as supporting cells on a gelatin-coated 96-well plate. Human iPS cells were treated with Y27632 (10 μM) from 24 hours before seeding, and peeled using 0.25% trypsin. The peeled human iPS cells were seeded on mmcM15 cells at a cell concentration of 1×10^4 cells/well. The seeded human iPS cells were cultured for 24 hours under 37° C. and 5% CO2 in ES culture medium containing Y27632 and bFGF added. After 24 hours, the culture medium was changed to an endoderm differentiation culture medium (Day 0). The endoderm differentiation culture medium was changed every other day and human iPS cells cultured under 37° C. and 5% CO2 from the day of initiation of culture (Day 0) to Day 8. On Day 8, the culture medium was changed to various culture media. One obtained by removing […]⋅folate⋅vitamin B12⋅betaine⋅choline from the culture medium was used as a methyl donor-deprived culture medium. Human iPS cells were cultured until Day 10 using various culture media, and Oct3/4 and Sox17 positive cells were counted.
It is known that methionine is metabolized to give cysteine (Cys). […] In the figure, δMD denotes a culture medium not containing methionine, folic acid, vitamin B12, betaine and choline as a methyl donor.

[3] = tested on: human iPS cells
Protocol: as §1, §2
The methionine addition concentration between Day 8 and Day 10 was […], 0.1, 1.0, 5.0, 10.0, 20.0, 50.0, 100, 200 and 500 μM.
On Day 10, the culture medium was changed to a liver differentiation culture medium ([…] containing 10% KSR, 2000 mg/l D-glucose, 50 units/ml penicillin and 50 μg/ml streptomycin, 2 mM L-glutamine, 100 μM β-mercaptoethanol, […] human recombinant HGF and 1 μM dexamethasone (hereinafter, referred to as “2000KSR-DMEM culture medium”)), and cultured under 37° C. and 5% CO2 until Day 20. During Day 10 to Day 20, the culture medium was changed every other day. On Day 20, human iPs cells were subjected to immunofluorescent staining, and the proportions of Oct3/4 positive cells and AFP positive cells were compared for every methionine concentration.
On Day 10, the culture medium was changed to a liver differentiation culture medium (2000KSR-DMEM culture medium), and human iPS cells were cultured under 37° C. and 5% CO2 until Day 30. During Day 10 to Day 30, the culture medium was changed every other day.

[4] = tested on: human iPS cells; remark: listed apart in the source
Protocol: For investigating an influence of a proline-added differentiation culture medium on differentiation into hepatocytes, differentiation of human iPS cells into liver precursor cells was induced using a liver differentiation culture medium containing proline added at a concentration of 1 mM.
On a gelatin-coated 96-well plate, mmcM15 cells were seeded as supporting cells. Human iPS cells were treated with Y27632 (10 μM) from 24 hours before seeding, and peeled using 0.25% trypsin. The peeled human iPS cells were seeded on mmcM15 cells at a cell concentration of 1×10^4 cells/well. The seeded human iPS cells were cultured for 24 hours under 37° C. and 5% CO2 in ES culture medium containing Y27632 and bFGF added. After 24 hours, the culture medium was changed to an endoderm differentiation culture medium (Day 0).
In the same manner as in Example 3, the endoderm differentiation culture medium was changed every other day and human iPS cells were cultured under 37° C. and 5% CO2, from the day of initiation of culturing (Day 0) to Day 8.
On Day 10, the culture medium was changed to a liver differentiation culture medium (2000KSR-DMEM culture medium, control culture medium) or Pro-containing 2000KSR-DMEM culture medium obtained by further adding 1 mM proline to a control culture medium, and human iPS cells were cultured until Day 19 under 37° C. and 5% CO2. During Day 10 to Day 19, the culture medium was changed every other day. On Day 19, human iPS cells were subjected to immunofluorescent staining with an anti-Oct3/4 antibody and an anti-AFP antibody.

[5] = amino acid-deprived endoderm differentiation culture medium Day 6 to Day 10
[6] = amino acid-deprived endoderm differentiation culture medium Day 8 to Day 10
[7] = methionine 0 μM to 0.1 μM Day 8 to Day 10, Day 20, FIG. 7C
[8] = methionine 1 μM to 20 μM Day 8 to Day 10, Day 20, FIG. 7C
[9] = methionine 50 μM or more Day 8 to Day 10, Day 20, FIG. 7C
[10] = Day 19, methionine deprivation Day 8 to Day 10 and/or 1 mM proline Day 10 to Day 19, vs control group

| Structure (SMILES) | Oct3/4 positive cell ratio [1, 5] | Oct3/4 positive cell ratio [1, 6] | Sox17 positive cell ratio [1, 6] | also measured |
| --- | --- | --- | --- | --- |
| N=C(N)NCCC[C@H](N)C(=O)O [Arg, arginine] | decreased | remarkably decreased | increased |  |
| N[C@@H](CS)C(=O)O [Cys, cysteine] | decreased | remarkably decreased | increased | effect of reducing Oct3/4 positive cells owing to methionine deprivation [2]: has no influence |
| NC(=O)CC[C@H](N)C(=O)O [Gln] |  |  | increased |  |
| NCC(=O)O [Gly] |  |  | increased |  |
| N[C@@H](CCS)C(=O)O [Hcy, homocysteine] |  |  |  | effect of reducing Oct3/4 positive cells owing to methionine deprivation [2]: the effect of reducing Oct3/4 positive cells is inhibited; effect of reducing Oct3/4 positive cells [2]: had not influence |
| N[C@@H](Cc1c[nH]cn1)C(=O)O [His, histidine] | decreased | remarkably decreased |  |  |
| CC[C@H](C)[C@H](N)C(=O)O [Ile, isoleucine] | decreased | remarkably decreased |  |  |
| CC(C)C[C@H](N)C(=O)O [Leu, leucine] | decreased | remarkably decreased | increased |  |
| NCCCC[C@H](N)C(=O)O [Lys, lysine] | decreased | remarkably decreased |  |  |
| CSCC[C@H](N)C(=O)O [Met, methionine] | decreased | remarkably decreased | increased | AFP positive cells [3, 7]: present uniformly; amount of remaining Oct3/4 positive cells [3, 7]: small; number of AFP positive cells [3, 8]: decrease in the number of AFP positive cells is not recognized; number of Oct3/4 positive cells [3, 8]: increases slightly; number of Oct3/4 positive cells [3, 9]: remarkable increase; number of Sox17 positive cells [3, 9]: remarkable decrease; proportion of Oct3/4 positive cells on Day 20 ([3]; methionine added Day 8 to Day 10 at various concentrations up to 500 μM, then liver differentiation culture medium): increased depending on the methionine concentration; proportion of AFP positive cells ([3]; methionine concentrations of 50 μM or more Day 8 to Day 10, Day 20, FIG. 7B): decreased; effect of reducing Oct3/4 positive cells owing to methionine deprivation [2]: the effect of reducing Oct3/4 positive cells is inhibited; effect of reducing Oct3/4 positive cells [2]: inhibited the effect of reducing Oct3/4 positive cells |
| N[C@@H](Cc1ccccc1)C(=O)O [Phe, phenylalanine] | decreased | remarkably decreased |  |  |
| Nc1ncnc2c1ncn2[C@@H]1O[C@H](CSCC[C@H](N)C(=O)O)[C@@H](O)[C@H]1O [SAH, S-adenosylhomocystein] |  |  |  | effect of reducing Oct3/4 positive cells owing to methionine deprivation [2]: the effect of reducing Oct3/4 positive cells is inhibited; effect of reducing Oct3/4 positive cells [2]: had not influence |
| C[S+](CC[C@H](N)C(=O)O)C[C@H]1O[C@@H](n2cnc3c(N)ncnc32)[C@H](O)[C@@H]1O (stereo partly shown) [SAM, S-adenosylmethionine] |  |  |  | effect of reducing Oct3/4 positive cells owing to methionine deprivation [2]: the effect of reducing Oct3/4 positive cells is inhibited; effect of reducing Oct3/4 positive cells [2]: inhibited the effect of reducing Oct3/4 positive cells |
| N[C@@H](CO)C(=O)O [Ser] |  |  | increased |  |
| C[C@@H](O)[C@H](N)C(=O)O [Thr, threonine] | decreased | remarkably decreased |  |  |
| N[C@@H](Cc1c[nH]c2ccccc12)C(=O)O [Trp, tryptophan] | decreased | remarkably decreased |  |  |
| N[C@@H](Cc1ccc(O)cc1)C(=O)O [Tyr, tyrosine] | decreased | remarkably decreased | without change |  |
| CC(C)[C@H](N)C(=O)O [Val, valine] | decreased | remarkably decreased |  |  |
| O=C(O)[C@@H]1CCCN1 [proline] |  |  |  | AFP positive cells [4, 10]: larger; Oct3/4 positive cells [4, 10]: decreased; AFP and Oct3/4 positive cells ([4]; proline 10 mM): the same result as in the case of 1 mM addition |
